In patent publication US7998989B2, “2-Imino-1,3-thiazoline-based compounds and T-type calcium channel inhibitors containing the same” (Korea Institute of Science and Technology, priority 2007, dated 2011):

Columns and labels:
[1] = target: T1, α1G T-type calcium channel (Homo sapiens, UniProt O43497); assay: Assay for % inhibiting activity against T-type calcium channel using FDSS6000 (fluo-3 calcium imaging, KCl activation); assay type: cell-based; details: HEK293, 10 μM; HEK293 cells stably expressing α1G T-type calcium channel and Kir2.1; compounds of the examples; read-out: FDSS (% inhibition)/10uM
T1 construct: host or cells: HEK293
T1 sequence (O43497 whole entry): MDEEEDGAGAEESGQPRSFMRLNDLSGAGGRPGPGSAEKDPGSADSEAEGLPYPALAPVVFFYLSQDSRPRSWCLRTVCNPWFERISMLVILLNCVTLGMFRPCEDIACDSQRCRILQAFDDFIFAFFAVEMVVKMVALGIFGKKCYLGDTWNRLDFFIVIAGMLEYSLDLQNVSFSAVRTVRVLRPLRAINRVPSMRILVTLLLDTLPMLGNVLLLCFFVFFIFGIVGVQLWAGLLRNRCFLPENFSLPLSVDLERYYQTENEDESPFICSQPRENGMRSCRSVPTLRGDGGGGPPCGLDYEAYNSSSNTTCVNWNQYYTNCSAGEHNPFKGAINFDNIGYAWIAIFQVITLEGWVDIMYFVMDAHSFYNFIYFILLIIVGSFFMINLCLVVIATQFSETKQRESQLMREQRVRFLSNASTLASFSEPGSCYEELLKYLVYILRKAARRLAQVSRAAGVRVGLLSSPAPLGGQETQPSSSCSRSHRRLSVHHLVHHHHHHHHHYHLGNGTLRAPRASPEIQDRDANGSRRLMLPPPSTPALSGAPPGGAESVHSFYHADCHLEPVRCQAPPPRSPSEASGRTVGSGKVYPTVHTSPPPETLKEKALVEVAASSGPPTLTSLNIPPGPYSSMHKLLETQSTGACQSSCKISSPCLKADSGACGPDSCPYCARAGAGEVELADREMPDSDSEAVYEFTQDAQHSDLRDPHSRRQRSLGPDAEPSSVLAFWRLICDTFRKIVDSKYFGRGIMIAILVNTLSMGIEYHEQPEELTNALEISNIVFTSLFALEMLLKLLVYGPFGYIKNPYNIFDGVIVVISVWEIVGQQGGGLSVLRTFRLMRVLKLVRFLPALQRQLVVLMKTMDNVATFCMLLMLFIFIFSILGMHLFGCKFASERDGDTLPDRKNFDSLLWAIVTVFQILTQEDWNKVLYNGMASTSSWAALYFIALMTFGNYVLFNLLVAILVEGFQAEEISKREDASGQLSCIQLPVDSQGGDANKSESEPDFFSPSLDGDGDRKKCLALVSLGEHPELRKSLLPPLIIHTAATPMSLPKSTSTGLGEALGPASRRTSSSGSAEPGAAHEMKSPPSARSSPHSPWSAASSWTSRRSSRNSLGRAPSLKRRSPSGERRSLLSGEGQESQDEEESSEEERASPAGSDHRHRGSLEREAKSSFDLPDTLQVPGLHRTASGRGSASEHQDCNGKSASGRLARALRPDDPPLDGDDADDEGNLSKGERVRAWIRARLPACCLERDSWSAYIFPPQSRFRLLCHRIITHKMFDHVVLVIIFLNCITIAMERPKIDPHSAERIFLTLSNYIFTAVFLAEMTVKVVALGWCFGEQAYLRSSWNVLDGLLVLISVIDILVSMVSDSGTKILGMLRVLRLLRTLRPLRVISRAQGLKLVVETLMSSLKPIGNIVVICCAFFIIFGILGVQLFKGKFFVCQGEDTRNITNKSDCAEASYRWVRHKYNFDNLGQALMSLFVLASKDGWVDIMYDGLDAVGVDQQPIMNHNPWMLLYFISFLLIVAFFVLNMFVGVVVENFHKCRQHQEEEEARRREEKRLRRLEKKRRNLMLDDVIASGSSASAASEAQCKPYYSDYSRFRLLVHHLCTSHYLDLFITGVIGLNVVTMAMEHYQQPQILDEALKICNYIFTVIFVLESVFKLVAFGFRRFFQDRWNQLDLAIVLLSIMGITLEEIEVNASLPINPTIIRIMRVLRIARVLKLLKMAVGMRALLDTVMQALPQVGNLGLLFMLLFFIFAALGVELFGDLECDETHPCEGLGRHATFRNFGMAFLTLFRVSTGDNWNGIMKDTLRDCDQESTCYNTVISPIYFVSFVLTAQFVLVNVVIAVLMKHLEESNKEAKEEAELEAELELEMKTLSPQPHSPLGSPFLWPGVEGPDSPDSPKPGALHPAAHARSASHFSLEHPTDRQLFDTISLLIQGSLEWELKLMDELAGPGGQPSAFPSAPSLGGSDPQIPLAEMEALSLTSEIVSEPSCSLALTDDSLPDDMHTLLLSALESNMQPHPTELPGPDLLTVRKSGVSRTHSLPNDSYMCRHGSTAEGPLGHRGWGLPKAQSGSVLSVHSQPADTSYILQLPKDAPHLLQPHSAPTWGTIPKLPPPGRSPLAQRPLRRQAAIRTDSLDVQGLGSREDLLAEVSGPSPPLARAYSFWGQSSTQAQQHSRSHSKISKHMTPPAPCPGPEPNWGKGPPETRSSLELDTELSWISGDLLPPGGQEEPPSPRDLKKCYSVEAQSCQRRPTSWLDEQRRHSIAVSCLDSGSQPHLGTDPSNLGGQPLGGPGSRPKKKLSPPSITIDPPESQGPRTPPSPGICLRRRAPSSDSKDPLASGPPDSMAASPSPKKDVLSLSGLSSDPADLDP
Outline: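 Percent inhibition derived from […] area against untreated control (100%), after 75 s compound pre-exposure and 75 mM KCl activation. Cells: HEK293 with stable α1G plus Kir2.1, fluo-3/AM-labelled (5 μM), assayed in pH 7.4 HEPES containing 10 mM CaCl2.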

SMILES: CC(C)N1C(=NC23CC4CC(CC(C4)C2)C3)SCC1CC(=O)Nc1ccc(C(F)(F)F)cc1.Cl (stereo not drawn) [KHG24826, [2-(1-adamantylimino)-3-isopropyl-1,3-thiazolidine-4-yl]-N-(4-trifluoromethylphenyl)-acetamide hydrochloride]
- melting point: 246 °C
- inhibition at 10 µM [1]: 46.5%

SMILES: CC(C)N1C(=NC23CC4CC(CC(C4)C2)C3)SCC1CC(=O)Nc1cc(C(F)(F)F)cc(C(F)(F)F)c1.Cl (stereo not drawn) [KHG24828, [2-(1-adamantylimino)-3-isopropyl-1,3-thiazolidine-4-yl]-N-(3,5-ditrifluoromethylphenyl)-acetamide hydrochloride]
- melting point: 233 °C
- inhibition at 10 µM [1]: 35.4%

SMILES: CC(C)N1C(=NC23CC4CC(CC(C4)C2)C3)SCC1CC(=O)Nc1ccc(CF)cc1.Cl (stereo not drawn) [KHG24829, [2-(1-adamantylimino)-3-isopropyl-1,3-thiazolidine-4-yl]-N-(4-fluoromethylphenyl)-acetamide hydrochloride]
- melting point: 227 °C
- inhibition at 10 µM [1]: 69%

SMILES: Cc1ccc(NC(=O)CC2CSC(=NC34CC5CC(CC(C5)C3)C4)N2C(C)C)cc1.Cl (stereo not drawn) [KHG24831, [2-(1-adamantylimino)-3-isopropyl-1,3-thiazolidine-4-yl]-N-(4-methylphenyl)-acetamide hydrochloride]
- melting point: 220 °C
- inhibition at 10 µM [1]: 57%

SMILES: CCc1ccc(NC(=O)CC2CSC(=NC34CC5CC(CC(C5)C3)C4)N2C(C)C)cc1.Cl (stereo not drawn) [KHG24832, [2-(1-adamantylimino)-3-isopropyl-1,3-thiazolidine-4-yl]-N-(4-ethylphenyl)-acetamide hydrochloride]
- melting point: 171 °C
- inhibition at 10 µM [1]: 46.5%

SMILES: CC(C)N1C(=NC23CC4CC(CC(C4)C2)C3)SCC1CC(=O)Nc1ccc(Oc2ccccc2)cc1.Cl (stereo not drawn) [KHG24833, [2-(1-adamantylimino)-3-isopropyl-1,3-thiazolidine-4-yl]-N-(4-phenoxyphenyl)-acetamide hydrochloride]
- melting point: 164 °C
- inhibition at 10 µM [1]: 37%

SMILES: CC(C)N1C(=NC23CC4CC(CC(C4)C2)C3)SCC1CC(=O)Nc1ccc(Cl)cc1F.Cl (stereo not drawn) [KHG24834, [2-(1-adamantylimino)-3-isopropyl-1,3-thiazolidine-4-yl]-N-(4-chloro-2-fluorophenyl)-acetamide hydrochloride]
- melting point: 228 °C
- inhibition at 10 µM [1]: 65.7%

SMILES: CC(C)N1C(=NC23CC4CC(CC(C4)C2)C3)SCC1CC(=O)Nc1cc(Cl)ccc1F.Cl (stereo not drawn) [KHG24835, [2-(1-adamantylimino)-3-isopropyl-1,3-thiazolidine-4-yl]-N-(5-chloro-2-fluorophenyl)-acetamide hydrochloride]
- melting point: 116 °C
- inhibition at 10 µM [1]: 55.2%

SMILES: Cc1ccc(NC(=O)CC2CSC(=NC34CC5CC(CC(C5)C3)C4)N2C(C)C)cc1Cl.Cl (stereo not drawn) [KHG24836, [2-(1-adamantylimino)-3-isopropyl-1,3-thiazolidine-4-yl]-N-(5-chloro-4-methylphenyl)-acetamide hydrochloride]
- melting point: 231 °C
- inhibition at 10 µM [1]: 48.9%

SMILES: CCCN1C(=NC23CC4CC(CC(C4)C2)C3)SCC1CC(=O)Nc1cc([N+](=O)[O-])ccc1F.Cl (stereo not drawn) [KHG24839, [2-(1-adamantylimino)-3-n-propyl-1,3-thiazolidine-4-yl]-N-(2-fluoro-5-nitrophenyl)-acetamide hydrochloride]
- melting point: 145 °C
- inhibition at 10 µM [1]: 59.7%

SMILES: CC(C)N1C(=NC23CC4CC(CC(C4)C2)C3)SCC1CC(=O)Nc1cc([N+](=O)[O-])ccc1F.Cl (stereo not drawn) [KHG24840, [2-(1-adamantylimino)-3-isopropyl-1,3-thiazolidine-4-yl]-N-(2-fluoro-5-nitrophenyl)-acetamide hydrochloride]
- melting point: 131 °C
- inhibition at 10 µM [1]: 49.4%

SMILES: CN1C(=NC2C3CC4CC(C3)CC2C4)SCC1CC(=O)Nc1ccc(F)cc1.Cl (stereo not drawn) [KHG24842, [2-(2-adamantylimino)-3-methyl-1,3-thiazolidine-4-yl]-N-(4-fluorophenyl)-acetamide hydrochloride]
- melting point: 154 °C
- inhibition at 10 µM [1]: 59.8%
